{"source": "patent US5112807A", "about": "“Compound \"Leualacin\", its preparation and its use in the treatment of cardiovascular disorders” (Sankyo Company, Limited, priority 1988, dated 1992)", "key": {"tenia caecum": {"test_system": "tenia caecum", "experiment": "Calcium antagonizing action in the tenia caecum", "assay_type": "cell-based, guinea pigs", "conditions": "30 minutes incubation, calcium chloride-induced contraction", "protocol": "The calcium antagonizing activity in the tenia caecum was measured according to the method of M. Spedding [Naunyn-Schmiedeberg's Arch. Pharmacol. 318, 234-240(1982)]. Male guinea pigs weighing 250 to 300 g were laparotomized under pentobarbital anesthesia and the tenia was immediately removed from the caecum. The tenia was cut into strips of 6-7 cm length and suspended in a Magnus vessel filled with 20 ml of Tyrode's solution without calcium aerated with a mixed gas (O2 95%-CO2 5% by volume). After the specimen had eguilibrated by standing for 1 hour under the above conditions, 0.2 ml each of 30, 100 and 300 mM aqueous calcium chloride solutions were cumulatively added at 3 minute intervals and the contraction of the specimen was measured. After the measurements, the specimen was washed twice with Tyrode's solution without calcium and left for 30 minutes. The specimen was then incubated with Leualacin for 30 minutes, after which 0.2 ml each of 30, 100 and 300 mM calcium chloride solutions were cumulatively added at 3 minute intervals in the same manner as above, and the contraction was again measured. The contraction after the treatment with the Leualacin solution was deducted from that after the treatment with the calcium chloride solution alone and the value obtained was divided by the contraction after the treatment with the calcium chloride solution alone, to give the antagonizing rate."}, "mice": {"test_system": "mice", "experiment": "Acute toxicity", "assay_type": "in vivo", "conditions": "orally, 200 mg/kg", "protocol": "No toxicity was noted when Leualacin was orally administered to mice at a dose of 200 mg/kg, which is far in excess of any reasonable therapeutic dose."}, "[1]": {"experiment": "Chemical and physical properties: description and solubility", "assay_type": "physicochemical", "description": "Leualacin has the molecular structure shown above and the following chemical and physical properties: […]"}, "[2]": {"test_system": "SHR (spontaneously hypertensive rats)", "experiment": "Antihypertensive activity in SHR", "assay_type": "in vivo", "conditions": "conscious male SHR", "protocol": "Male SHR (spontaneously hypertensive rats), 15 weeks old, were anesthetized with sodium pentobarbital (50 mg/kg intraperitoneally). and a polyethylene cannula was inserted through the left femoral artery into the abdominal aorta. The other end of the cannula was led out of the body and fixed at the back of the neck. One week after the operation, when the animal had recovered from the stress of the surgery, the other end of the cannula was connected to a blood pressure transducer, which was constructed according to the directions of Laffan et al. [Laffan, P. J., Peterson A., Hitch S. W. and Jeunelot C., Cardiovascular Res. 6, 319-324 (1972)], but with slight modifications. The blood pressure and heart rate of the conscious and unstressed SHR were measured. After the blood pressure and the heart rate had stabilised for more than one hour, the test drug was administered by gavage. After administration of the test sample, the blood pressure and the heart rate were measured every 15 minutes over a […] is shown in Table 2."}, "[3]": {"target": "T1, calcium channel (3H-nitrendipine binding to microsome fraction prepared from porcine heart) (Sus scrofa, UniProt A0A8W4FNC0)", "T1 construct": "15 to 20 μg of a microsome fraction prepared from porcine heart; from tissue; host or cells: porcine heart microsome fraction", "T1 sequence (A0A8W4FNC0 1-2067)": "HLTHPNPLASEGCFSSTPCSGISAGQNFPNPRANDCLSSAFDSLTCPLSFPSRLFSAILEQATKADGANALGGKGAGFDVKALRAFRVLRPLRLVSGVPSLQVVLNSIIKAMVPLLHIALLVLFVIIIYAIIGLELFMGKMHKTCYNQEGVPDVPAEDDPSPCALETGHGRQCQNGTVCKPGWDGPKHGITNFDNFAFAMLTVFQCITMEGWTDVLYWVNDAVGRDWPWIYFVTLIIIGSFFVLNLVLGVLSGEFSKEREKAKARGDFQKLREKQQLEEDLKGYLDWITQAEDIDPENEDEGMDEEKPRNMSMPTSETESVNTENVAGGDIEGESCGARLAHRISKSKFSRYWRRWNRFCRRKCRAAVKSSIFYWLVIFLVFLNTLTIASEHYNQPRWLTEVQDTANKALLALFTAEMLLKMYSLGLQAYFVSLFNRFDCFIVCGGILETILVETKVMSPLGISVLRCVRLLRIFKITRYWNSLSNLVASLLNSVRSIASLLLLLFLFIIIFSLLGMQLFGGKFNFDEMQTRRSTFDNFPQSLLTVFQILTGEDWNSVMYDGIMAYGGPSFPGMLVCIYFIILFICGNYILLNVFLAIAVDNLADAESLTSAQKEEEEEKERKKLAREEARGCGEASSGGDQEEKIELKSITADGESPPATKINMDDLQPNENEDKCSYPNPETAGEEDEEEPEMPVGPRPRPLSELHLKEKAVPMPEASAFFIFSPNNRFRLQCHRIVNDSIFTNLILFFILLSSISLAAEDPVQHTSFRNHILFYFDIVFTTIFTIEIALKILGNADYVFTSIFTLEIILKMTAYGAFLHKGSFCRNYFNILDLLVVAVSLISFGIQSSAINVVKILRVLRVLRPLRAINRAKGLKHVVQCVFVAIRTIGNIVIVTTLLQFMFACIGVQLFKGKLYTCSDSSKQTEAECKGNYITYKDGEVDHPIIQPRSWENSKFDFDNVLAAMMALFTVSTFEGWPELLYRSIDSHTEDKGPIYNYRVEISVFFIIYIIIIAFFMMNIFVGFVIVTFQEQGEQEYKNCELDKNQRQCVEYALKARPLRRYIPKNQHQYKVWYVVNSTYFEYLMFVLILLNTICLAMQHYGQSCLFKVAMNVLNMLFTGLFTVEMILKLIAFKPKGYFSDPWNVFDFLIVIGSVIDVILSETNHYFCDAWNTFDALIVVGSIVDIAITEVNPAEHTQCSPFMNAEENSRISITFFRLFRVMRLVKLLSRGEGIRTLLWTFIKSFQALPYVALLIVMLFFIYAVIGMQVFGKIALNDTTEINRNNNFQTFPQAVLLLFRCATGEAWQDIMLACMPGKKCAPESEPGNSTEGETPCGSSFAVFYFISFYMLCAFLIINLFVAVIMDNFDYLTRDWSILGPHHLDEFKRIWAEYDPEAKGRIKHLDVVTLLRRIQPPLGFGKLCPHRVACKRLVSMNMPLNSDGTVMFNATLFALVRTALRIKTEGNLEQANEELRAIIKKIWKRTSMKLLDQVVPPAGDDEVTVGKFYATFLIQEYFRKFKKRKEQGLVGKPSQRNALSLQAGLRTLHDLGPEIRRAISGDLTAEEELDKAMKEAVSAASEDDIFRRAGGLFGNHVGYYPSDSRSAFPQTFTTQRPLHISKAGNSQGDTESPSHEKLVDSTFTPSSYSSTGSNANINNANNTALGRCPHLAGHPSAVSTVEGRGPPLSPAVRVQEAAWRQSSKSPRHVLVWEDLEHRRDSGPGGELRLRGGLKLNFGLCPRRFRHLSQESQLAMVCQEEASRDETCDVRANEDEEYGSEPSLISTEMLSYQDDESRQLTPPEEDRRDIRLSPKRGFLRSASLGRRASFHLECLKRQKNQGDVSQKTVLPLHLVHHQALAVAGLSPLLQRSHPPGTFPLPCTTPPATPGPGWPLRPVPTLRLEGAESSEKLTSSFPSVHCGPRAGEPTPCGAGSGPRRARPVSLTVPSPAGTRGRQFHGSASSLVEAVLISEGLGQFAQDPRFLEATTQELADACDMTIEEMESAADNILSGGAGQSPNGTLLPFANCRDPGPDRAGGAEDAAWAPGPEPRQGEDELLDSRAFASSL", "experiment": "Radioligand binding assay: inhibition of 3H-nitrendipine binding to microsomes", "conditions": "200 PM 3H-nitrendipine, 25° C., 30 minutes, pH 7.4, read-out: ID50, inhibition of binding of 3H-nitrendipine to microsomes (converted)", "description": "The progress of the cultivation and the amount of Leualacin produced as the culture proceeds can be determined by a radio ligand binding assay method, that is, for example, the method of […] and R. E. Oswald [Journal of Biological Chemistry, 260, 8456-8464 (1985)] which is based on the ability of Leualacin to inhibit the binding of ^3 H-nitrendipine to microsomes. High performance liquid chromatography may also be used. […] This experiment used a radioligand binding assay method, which is a modification of the method of […] and R. E. Oswald [Journal of Biological Chemistry, 260, 8456-8464 [(1985)], to determine the activity which inhibits the binding of ^3 H-nitrendipine to microsomes. The reaction was carried out at 25° C. for 30 minutes in 1 ml of a reaction mixture comprising 15 to 20 μg of a microsome fraction prepared from porcine heart, 200 PM ^3 H-nitrendipine (NEN-Dupont Pharmaceuticals, specific activity 88.1 Ci/mM), 50 mM NaOH-HEPES buffer (pH 7.4) and 0.5% by volume ethanol. (HEPES is N-2-hydroxyethylpiperazine-N'-2-ethanesulfonic acid). […] The glass-fibre filter was then put in a vial and OPTIFLUOR (Packard Co., Ltd.) was used as the scintillator and the radioactivity (as disintegrations per minute) was measured."}}}
{"smiles": "CC(C)CC1NC(=O)C(CC(C)C)OC(=O)CCNC(=O)C(Cc2ccccc2)N(C)C(=O)C(CC(C)C)OC1=O", "note": "(centres unmarked) [Leualacin, 11-benzyl-2,5,8-triisobutyl-10-methyl-1,7-dioxa-4,10,13-triazacyclohexadec ane-3,6,9,12,16-pentone]", "values": [{"measurement": "Antagonizing rate (%)", "setting": "tenia caecum; Leualacin 10^-6 g/ml", "value": 97, "unit": "%"}, {"measurement": "Antagonizing rate (%)", "setting": "tenia caecum; Leualacin 10^-7 g/ml", "value": 73, "unit": "%"}, {"measurement": "Antagonizing rate (%)", "setting": "tenia caecum; Leualacin 10^-8 g/ml", "value": 22, "unit": "%"}, {"measurement": "Antagonizing rate (%)", "setting": "tenia caecum; Leualacin 10^-9 g/ml", "value": 0, "unit": "%"}, {"measurement": "Acute toxicity", "setting": "mice", "value": "No toxicity"}, {"measurement": "Description", "setting": "[1]", "value": "neutral, fat-soluble"}, {"measurement": "Solubility in organic solvents", "setting": "[1]; methanol, acetone, chloroform and ethyl acetate", "value": "Soluble"}, {"measurement": "Solubility in water", "setting": "[1]; water", "value": "insoluble"}, {"measurement": "Decrease of blood pressure (mmHg)", "setting": "[2]; 100 μg/kg by gavage", "value": 44, "unit": "mmHg"}, {"measurement": "Decrease of blood pressure (mmHg)", "setting": "[2]; 300 μg/kg by gavage", "value": 57, "unit": "mmHg"}, {"measurement": "IC50", "setting": "[3]", "value": 1730, "unit": "nM"}]}
